Earlier results, collected in patent EP1574563B1, “Use of detergent tablets” (UNILEVER N.V., priority 2004, dated 2005).
Where two headings read alike, the source gives them in different places.

[1] = other common materials, by contrast, at 20°C

Row | Water Solubility (g/100g) (highly water-soluble materials, grams of solid required to form a saturated solution in 100 grams of water at 20°C) | Structure (SMILES) | Water Solubility (g/100g) [1] [g/100g]
1 | – | O=BO[O-].[Na+] [Sodium perborate anhydrous] | 3.7
2 | – | O=P(O)(O)OP(=O)(O)OP(=O)(O)O [Sodium tripolyphosphate anhydrous] | 15
3 | >100 | NC(N)=O [Urea] | –
